Results published in PubChem BioAssay (NCI).
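Tested at 5 concentrations; 48 h exposure; 96-well plates; endpoints linearly interpolated, else capped at highest concentration. Here, GI50 denotes the concentration required for 50% inhibition of growth. TGI marks complete inhibition of growth.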

Key:
Experiment in all cases: NCI anticancer screen, dose series, 48 h
SK-OV-3 ovarian = tested on: SK-OV-3 ovarian
MCF7 breast = tested on: MCF7 breast
SK-MEL-5 melanoma = tested on: SK-MEL-5 melanoma
SK-MEL-2 melanoma = tested on: SK-MEL-2 melanoma
UACC-62 melanoma = tested on: UACC-62 melanoma
SF-539 CNS = tested on: SF-539 CNS
NCI-H23 lung = tested on: NCI-H23 lung
SNB-19 CNS = tested on: SNB-19 CNS
RPMI-8226 leukemia = tested on: RPMI-8226 leukemia
OVCAR-8 ovarian = tested on: OVCAR-8 ovarian
OVCAR-5 ovarian = tested on: OVCAR-5 ovarian
HL-60(TB) leukemia = tested on: HL-60(TB) leukemia
SNB-75 CNS = tested on: SNB-75 CNS
SN12C renal = tested on: SN12C renal
ACHN renal = tested on: ACHN renal
786-0 renal = tested on: 786-0 renal
CAKI-1 renal = tested on: CAKI-1 renal
PC-3 prostate = tested on: PC-3 prostate
RXF 393 renal = tested on: RXF 393 renal
SF-295 CNS = tested on: SF-295 CNS
NCI-H460 lung = tested on: NCI-H460 lung
CCRF-CEM leukemia = tested on: CCRF-CEM leukemia
NCI-H522 lung = tested on: NCI-H522 lung
A549 NSCLC = tested on: A549 NSCLC
BT-549 breast = tested on: BT-549 breast
SF-268 CNS = tested on: SF-268 CNS
NCI/ADR-RES ovarian = tested on: NCI/ADR-RES ovarian
KM12 colon = tested on: KM12 colon
T-47D breast = tested on: T-47D breast
EKVX NSCLC = tested on: EKVX NSCLC
HS 578T breast = tested on: HS 578T breast
SR leukemia = tested on: SR leukemia
SW-620 colon = tested on: SW-620 colon
DU-145 prostate = tested on: DU-145 prostate
NCI-H226 lung = tested on: NCI-H226 lung
U251 CNS = tested on: U251 CNS
MOLT-4 leukemia = tested on: MOLT-4 leukemia
TK-10 renal = tested on: TK-10 renal
OVCAR-4 ovarian = tested on: OVCAR-4 ovarian
HOP-62 NSCLC = tested on: HOP-62 NSCLC
OVCAR-3 ovarian = tested on: OVCAR-3 ovarian
LOX IMVI melanoma = tested on: LOX IMVI melanoma
HCT-15 colon = tested on: HCT-15 colon
MDA-MB-231 breast = tested on: MDA-MB-231 breast
HCC-2998 colon = tested on: HCC-2998 colon
SK-MEL-28 melanoma = tested on: SK-MEL-28 melanoma
HCT-116 colon = tested on: HCT-116 colon
K-562 leukemia = tested on: K-562 leukemia
MALME-3M melanoma = tested on: MALME-3M melanoma
COLO 205 colon = tested on: COLO 205 colon
UO-31 renal = tested on: UO-31 renal
UACC-257 melanoma = tested on: UACC-257 melanoma
IGROV1 ovarian = tested on: IGROV1 ovarian
M14 melanoma = tested on: M14 melanoma
A498 renal = tested on: A498 renal
HOP-92 NSCLC = tested on: HOP-92 NSCLC

CCN(CC)CCC(CNc1c(C)cnc2cc(Cl)ccc12)c1ccc(Cl)cc1 (stereo not given)
GI50 (SK-OV-3 ovarian): 15.1 µM | TGI (SK-OV-3 ovarian): 28.9 µM | GI50 (MCF7 breast): 3.27 µM | TGI (MCF7 breast): 16.3 µM | GI50 (SK-MEL-5 melanoma): 1.73 µM | TGI (SK-MEL-5 melanoma): 3.18 µM | GI50 (SK-MEL-2 melanoma): 3.91 µM | TGI (SK-MEL-2 melanoma): 14.1 µM | GI50 (UACC-62 melanoma): 2.23 µM | TGI (UACC-62 melanoma): 5.16 µM | GI50 (SF-539 CNS): 1.63 µM | TGI (SF-539 CNS): 3.31 µM | GI50 (NCI-H23 lung): 10.3 µM | TGI (NCI-H23 lung): 24.1 µM | GI50 (SNB-19 CNS): 11.4 µM | TGI (SNB-19 CNS): 26.8 µM | GI50 (RPMI-8226 leukemia): 2.96 µM | TGI (RPMI-8226 leukemia): 13.6 µM | GI50 (OVCAR-8 ovarian): 10.8 µM | TGI (OVCAR-8 ovarian): 25.5 µM | GI50 (OVCAR-5 ovarian): 8.93 µM | TGI (OVCAR-5 ovarian): 24 µM | GI50 (HL-60(TB) leukemia): 4.45 µM | TGI (HL-60(TB) leukemia): 26.9 µM | GI50 (SNB-75 CNS): 5.67 µM | TGI (SNB-75 CNS): 21 µM | GI50 (SN12C renal): 12.8 µM | TGI (SN12C renal): 28.8 µM | GI50 (ACHN renal): 6.47 µM | TGI (ACHN renal): 20.1 µM | GI50 (786-0 renal): 8.53 µM | TGI (786-0 renal): 22.6 µM | GI50 (CAKI-1 renal): 3.51 µM | TGI (CAKI-1 renal): 16.8 µM | GI50 (PC-3 prostate): 10.7 µM | TGI (PC-3 prostate): 24 µM | GI50 (RXF 393 renal): 4.39 µM | TGI (RXF 393 renal): 18.4 µM | GI50 (SF-295 CNS): 2.53 µM | TGI (SF-295 CNS): 10.7 µM | GI50 (NCI-H460 lung): 10 µM | TGI (NCI-H460 lung): 25.2 µM | GI50 (CCRF-CEM leukemia): 4.32 µM | TGI (CCRF-CEM leukemia): 19.2 µM | GI50 (NCI-H522 lung): 4.43 µM | TGI (NCI-H522 lung): 17.3 µM | GI50 (A549 NSCLC): 16 µM | TGI (A549 NSCLC): 32.2 µM | GI50 (BT-549 breast): 11.2 µM | TGI (BT-549 breast): 24.9 µM | GI50 (SF-268 CNS): 11.1 µM | TGI (SF-268 CNS): 26.1 µM | GI50 (NCI/ADR-RES ovarian): 10.2 µM | TGI (NCI/ADR-RES ovarian): 23.5 µM | GI50 (KM12 colon): 11 µM | TGI (KM12 colon): 25.3 µM | GI50 (T-47D breast): 2.57 µM | TGI (T-47D breast): 10.5 µM | GI50 (EKVX NSCLC): 5.46 µM | TGI (EKVX NSCLC): 19.5 µM | GI50 (HS 578T breast): 12.3 µM | TGI (HS 578T breast): 34.1 µM | GI50 (SR leukemia): 0.0333 µM | TGI (SR leukemia): 7.06 µM | GI50 (SW-620 colon): 4.91 µM | TGI (SW-620 colon): 19.6 µM | GI50 (DU-145 prostate): 12.8 µM | TGI (DU-145 prostate): 26 µM | GI50 (NCI-H226 lung): 16 µM | TGI (NCI-H226 lung): 31.5 µM | GI50 (U251 CNS): 3.83 µM | TGI (U251 CNS): 13.2 µM | GI50 (MOLT-4 leukemia): 5.27 µM | TGI (MOLT-4 leukemia): 23.8 µM | GI50 (TK-10 renal): 10.9 µM | TGI (TK-10 renal): 23.8 µM | GI50 (OVCAR-4 ovarian): 4.17 µM | TGI (OVCAR-4 ovarian): 21.1 µM | GI50 (HOP-62 NSCLC): 10.6 µM | TGI (HOP-62 NSCLC): 23.8 µM | GI50 (OVCAR-3 ovarian): 11.9 µM | TGI (OVCAR-3 ovarian): 25.5 µM

Cc1c(C#N)c2nnn(-c3ccccc3)c(=O)n2c1-c1ccccc1
TGI (SK-OV-3 ovarian): > 29.5 µM | TGI (MCF7 breast): > 66.6 µM | TGI (LOX IMVI melanoma): > 100 µM | TGI (SK-MEL-5 melanoma): 16.5 µM | TGI (SK-MEL-2 melanoma): > 72.9 µM | TGI (UACC-62 melanoma): > 100 µM | TGI (NCI-H23 lung): > 77.6 µM | TGI (HCT-15 colon): > 100 µM | TGI (SNB-19 CNS): > 100 µM | TGI (MDA-MB-231 breast): > 100 µM | TGI (RPMI-8226 leukemia): 14.8 µM | TGI (OVCAR-8 ovarian): > 100 µM | TGI (HCC-2998 colon): > 39.4 µM | TGI (OVCAR-5 ovarian): > 100 µM | TGI (SNB-75 CNS): 18.2 µM | TGI (SN12C renal): > 56.8 µM | TGI (SK-MEL-28 melanoma): > 100 µM | TGI (ACHN renal): > 100 µM | TGI (786-0 renal): 30.1 µM | TGI (CAKI-1 renal): > 100 µM | TGI (PC-3 prostate): > 100 µM | TGI (RXF 393 renal): > 24.2 µM | TGI (SF-295 CNS): 8.53 µM | TGI (NCI-H460 lung): > 76.6 µM | TGI (HCT-116 colon): 13.2 µM | TGI (CCRF-CEM leukemia): > 20.7 µM | TGI (K-562 leukemia): 0.801 µM | TGI (A549 NSCLC): > 45.8 µM | TGI (BT-549 breast): > 100 µM | TGI (SF-268 CNS): > 100 µM | TGI (MALME-3M melanoma): > 100 µM | TGI (NCI/ADR-RES ovarian): 14.6 µM | TGI (KM12 colon): 29.1 µM | TGI (T-47D breast): 87.4 µM | TGI (EKVX NSCLC): > 34.5 µM | TGI (HS 578T breast): > 100 µM | TGI (COLO 205 colon): 3.41 µM | TGI (UO-31 renal): > 100 µM | TGI (SR leukemia): 19.3 µM | TGI (SW-620 colon): > 100 µM | TGI (UACC-257 melanoma): > 100 µM | TGI (IGROV1 ovarian): > 100 µM | TGI (DU-145 prostate): 8.45 µM | TGI (M14 melanoma): > 35.6 µM | TGI (A498 renal): > 25.1 µM | TGI (NCI-H226 lung): > 100 µM | TGI (U251 CNS): > 100 µM | TGI (MOLT-4 leukemia): 30.5 µM | TGI (TK-10 renal): > 100 µM | TGI (OVCAR-4 ovarian): > 100 µM | TGI (HOP-62 NSCLC): > 100 µM | TGI (OVCAR-3 ovarian): 16.2 µM | TGI (HOP-92 NSCLC): > 100 µM
